Data from patent publication US20160051560A1, “TREATMENTS INVOLVING ESLICARBAZEPINE OR ESLICARBAZEPINE ACETATE” (BIAL - PORTELA & Cª, S.A., priority 2013, published 2016).

System: patients with acute manic (including mixed) episode, bipolar I disorder
Test: Study BIA-2093-203: 3-week double-blind, randomised, placebo-controlled, dose-titration study in acute mania
Assay type: in vivo, human
Conditions: for YMRS score absolute change from V2 (1 Day) to V7 (21 Days), Mean ± SD / YMRS score absolute change from V2 (1 Day) to V7 (21 Days), Median (range): ITT
Experimental: Two 3-week multicentre, double-blind, randomised, placebo-controlled studies in acute mania (study BIA-2093-203: dose titrated by response, eslicarbazepine acetate (ESL) 600-1800 mg or 800-2400 mg, once-daily; study BIA-2093-204: fixed doses of 600, 1200 and 1800 mg, once-daily) were followed by a recurrence prevention study consisting of a 2-week open-label period (900 mg, once-daily) continued by a double-blind, parallel-group, fixed dose (300, 900 and 1800 mg, once-daily) period for a minimum of 6 months. The primary endpoint was change in Young Mania Rating Scale (YMRS) in studies BIA-2093-203 and BIA-2093-204, and the proportion of no worsening patients in the Clinical Global Impressions-Bipolar Version (CGI-BP) in study BIA-2093-205.
Study BIA-2093-203 (EudraCT No 2005-002131-27) followed a multicentre, double-blind, randomised, parallel-group, placebo-controlled, dose-titration design.
This study was conducted at 23 centres across Europe. Patients were randomised (3:3:2) to one of the following treatment groups: (1) ESL starting with 800 mg once daily (QD) and up-titrated in 800 mg steps until 2400 mg QD (maximum dose) according to clinical response, (2) ESL starting with 600 mg QD and up-titrated in 600 mg steps until 1800 mg QD (maximum dose) according to clinical response, and (3) Placebo QD. Patients were followed for up to 3 weeks. The study schedule consisted of a screening visit (V1), randomisation visit (V2, Day 1), and subsequent visits to evaluate clinical response (V3, Day 4; V4, Day 7; V5, Day 10; V6, Day 14 and V7, Day 21). In patients showing no improvement of symptoms, the dose of study medication was increased every 3 days until the maximum doses were reached. […] At the end of the 3-week treatment period, patients who responded to treatment had the option of entering the recurrence prevention study (Study BIA-2093-205).
Studies BIA-2093-203 and BIA-2093-204 enrolled patients with ages ≧18 years, currently displaying an acute manic (including mixed) episode and with a documented diagnosis of bipolar I disorder according to the DSM-IV criteria (2). Eligible patients should have a Young Mania Rating Scale (YMRS) total score ≧20, with symptoms of the current manic episode starting within two weeks prior to randomization. Patients were excluded if they had history of schizophrenia or schizoaffective disorder, psychotic features or rapid cycling. Patients were also excluded if they were treated with carbamazepine, oxcarbazepine or a depot-neuroleptic. Previous treatment with ESL or history of unresponsiveness, intolerance or hypersensitivity to other dibenzazepine compounds (carbamazepine, oxcarbazepine or licarbazepine) also constituted criteria for exclusion. Patients with clinical relevant risk of harm to self or others and history of substance abuse were also excluded. Women were excluded if they were pregnant or breast-feeding, or if of childbearing potential they were unable to use double-barrier contraception.
The following validated instruments were used: YMRS (20), the Clinical Global Impressions-Bipolar Version (CGI-BP) scale (21) and the Montgomery-Åsberg Depression Rating Scale (MADRS) (22). The YMRS score is the sum of 11 scoring items, ranging from 0 to 60 points; higher scores indicate higher mania symptomatology (20). The CGI-BP scale measures severity and treatment-related improvement in mania, depression and overall illness categories. It comprises 3 scales: severity of illness (1—normal to 7—very severely ill, in which 3—mildly ill was used as cut-off value for statistical analysis), change from preceding phase and worst phase (1—very much improved to 7—very much worse, and 8—not applicable) (21). The MADRS score is calculated as the sum of the 10 scoring items, ranging from 0 to 60 points: higher scores indicate higher depression symptomatology (22). […]

[1] = ESL 600 mg (600-1800 mg QD titrated), n = 63
[2] = ESL 800 mg (800-2400 mg QD titrated), n = 57
[3] = ESL 800 mg, n = 57, only study 203

CC(=O)O[C@H]1Cc2ccccc2N(C(N)=O)c2ccccc21 [ESL, (S)-10-acetoxy-10,11-dihydro-5H-dibenz[b,f]azepine-5-carboxamide]
MADRS scores under treatment with ESL as compared to placebo (ANCOVA showed no significant difference between the treatment groups at visit 7): apparent improvement
absolute difference between ESL treatment group and placebo for the YMRS total score (ESL 600 mg): 2.2
YMRS score absolute change from V2 (1 Day) to V7 (21 Days), Mean ± SD [1]: −12.2 ± 7.9
YMRS score absolute change from V2 (1 Day) to V7 (21 Days), Median (range) [1]: −14.0 (−25.0, 14.0)
CGI-BP score changes for mania and overall bipolar illness compared to placebo (ESL 600 mg group, from worst phase only): significant improvement
absolute difference between ESL treatment group and placebo for the YMRS total score (ESL 800 mg): 4.0
YMRS score absolute change from V2 (1 Day) to V7 (21 Days), Mean ± SD [2]: −14.1 ± 8.9
YMRS score absolute change from V2 (1 Day) to V7 (21 Days), Median (range) [2]: −16.0 (−33.0, 22.0)
CGI-BP score changes for mania and overall bipolar illness compared to placebo (ESL 800 mg group, from preceding and worst phase): significant improvement
proportion of patients in V7 classified as normal (CGI-BP severity of illness scale) vs placebo (ESL 800 mg group, mania and overall bipolar illness): significant differences
Any Adverse Events [3]: 29 (50.9) Number (%) of patients
Diarrhoea [3]: 2 (3.5) Number (%) of patients
Dizziness [3]: 5 (8.8) Number (%) of patients
Headache [3]: 5 (8.8) Number (%) of patients
Nausea [3]: 4 (7.0) Number (%) of patients
Paraesthesia oral [3]: 0 (0.0) Number (%) of patients
Somnolence [3]: 1 (1.8) Number (%) of patients
Vomiting [3]: 2 (3.5) Number (%) of patients
reduction in YMRS total score as compared with placebo, statistical significance (ESL 600-1800 mg and ESL 800-2400 mg groups): None of the treatment groups showed a reduction in YMRS total score as compared with placebo that was statistically significant
proportion of patients in full remission (YMRS score <12) at V7 compared to the placebo group (ESL 800-2400 mg group): significantly higher proportion of patients were in full remission
response rate (≧50% improvement or <12 points in the YMRS score) (ESL 800-2400 mg group): 66.7%
reduction in YMRS total score (ESL 800-2400 mg vs placebo −10.3 (p=0.0523)): −14.2
